Test results taken from patent US11053204B2, “Pyrimidinyloxy benzene derivatives as herbicides” (FMC Corporation, priority 2015, dated 2021).

Columns and labels:
Type in all cases: in vivo
rice (Oryza sativa) = assay: Test B flooded paddy test, plant response rating; conditions: 250 g ai/ha; Flood; scale of 0 to 100 where 0 is no effect and 100 is complete control; 13 to 15 days
Text: (§1) At time of treatment, test pots were flooded to 3 cm above the soil surface, treated by application of test compounds directly to the paddy water, and then maintained at that water depth for the duration of the test. Treated plants and controls were maintained in a greenhouse for 13 to 15 days, after which time all species were compared to controls and visually evaluated. […] A dash (-) response means no test result.

[1] = test system: barnyardgrass (Echinochloa crus-galli); assay: Test B flooded paddy test, plant response rating; conditions: 250 g ai/ha; Flood; scale of 0 to 100 where 0 is no effect and 100 is complete control; 13 to 15 days
Text: as §1

[2] = test system: ducksalad (Heteranthera limosa); assay: Test B flooded paddy test, plant response rating; conditions: 250 g ai/ha; Flood; scale of 0 to 100 where 0 is no effect and 100 is complete control; 13 to 15 days
Text: as §1

[3] = test system: sedge, umbrella (small-flower umbrella sedge, Cyperus difformis); assay: Test B flooded paddy test, plant response rating; conditions: 250 g ai/ha; Flood; scale of 0 to 100 where 0 is no effect and 100 is complete control; 13 to 15 days
Text: as §1

[4] = test system: Italian ryegrass (Lolium multiflorum); assay: Test A preemergence, visual injury rating
Summary of the method: (§2)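 Visual injury scored 0–100 (100 = complete control) against untreated controls about 10 days after treatment in a greenhouse. Test chemicals, formulated with surfactant in non-phytotoxic solvent, were sprayed on soil preemergence or on 2-10 cm, one- to two-leaf plants postemergence.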

[5] = test system: pigweed (Amaranthus retroflexus); assay: Test A preemergence, visual injury rating
Summary of the method: as §2

[6] = test system: barnyardgrass (Echinochloa crus-galli); assay: Test A preemergence, visual injury rating; conditions: for Barnyardgrass plant response rating: 0 to 100 scale (0 no effect, 100 complete control)
Summary of the method: as §2

kochia (Kochia scoparia) [7] = assay: Test A preemergence, visual injury rating
Summary of the method: as §2

[8] = test system: giant foxtail (Setaria faberii); assay: Test A preemergence, visual injury rating
Summary of the method: as §2

[9] = test system: ragweed (common ragweed, Ambrosia elatior); assay: Test A preemergence, visual injury rating
Summary of the method: as §2

[10] = test system: wheat (Triticum aestivum); assay: Test A postemergence, visual injury rating; conditions: 0 is no effect, 100 is complete control; for Wheat plant response rating: 0 to 100 scale, approximately 10 days
Text: (§3) Seeds of plant species selected from barnyardgrass (Echinochloa crus-galli), kochia (Kochia scoparia), ragweed (common ragweed, Ambrosia elatior), Italian ryegrass (Lolium multiflorum), large (Lg) crabgrass (Digitaria sanguinalis), giant foxtail (Setaria faberii), morningglory (Ipomoea spp.), pigweed (Amaranthus retroflexus), velvetleaf (Abutilon theophrasti), wheat (Triticum aestivum), and corn (Zea mays) were planted into a blend of loam soil and sand and treated preemergence with a directed soil spray using test chemicals formulated in a non-phytotoxic solvent mixture which included a surfactant.
(§4) At the same time, plants selected from these crop and weed species and also blackgrass (Alopecurus myosuroides), and galium (catchweed bedstraw, Galium aparine) were planted in pots containing the same blend of loam soil and sand and treated with postemergence applications of test chemicals formulated in the same manner. Plants ranged in height from 2 to 10 cm and were in the one- to two-leaf stage for the postemergence treatment. Treated plants and untreated controls were maintained in a greenhouse for approximately 10 days, after which time all treated plants were compared to untreated controls and visually evaluated for injury. Plant response ratings, summarized in Table A, are based on a 0 to 100 scale where 0 is no effect and 100 is complete control. A dash (-) response means no test result.

[11] = test system: Italian ryegrass (Lolium multiflorum); assay: Test A postemergence, visual injury rating; conditions: 0 is no effect, 100 is complete control; for Ryegrass, Italian plant response rating: 0 to 100 scale, approximately 10 days
Text: as §3, §4

[12] = test system: pigweed (Amaranthus retroflexus); assay: Test A postemergence, visual injury rating; conditions: 0 is no effect, 100 is complete control; for Pigweed plant response rating: 0 to 100 scale, approximately 10 days
Text: as §3, §4

[13] = test system: barnyardgrass (Echinochloa crus-galli); assay: Test A postemergence, visual injury rating; conditions: 0 is no effect, 100 is complete control; for Barnyardgrass plant response rating: 0 to 100 scale, approximately 10 days
Text: as §3, §4

kochia (Kochia scoparia) [14] = assay: Test A postemergence, visual injury rating; conditions: 0 is no effect, 100 is complete control; for Kochia plant response rating: 0 to 100 scale, approximately 10 days
Text: as §3, §4

[15] = test system: galium (catchweed bedstraw, Galium aparine); assay: Test A postemergence, visual injury rating; conditions: 0 is no effect, 100 is complete control; for Galium plant response rating: 0 to 100 scale, approximately 10 days
Text: as §3, §4

[16] = test system: giant foxtail (Setaria faberii); assay: Test A postemergence, visual injury rating; conditions: 0 is no effect, 100 is complete control; for Foxtail, Giant plant response rating: 0 to 100 scale, approximately 10 days
Text: as §3, §4

[17] = test system: ragweed (common ragweed, Ambrosia elatior); assay: Test A postemergence, visual injury rating; conditions: 0 is no effect, 100 is complete control; for Ragweed plant response rating: 0 to 100 scale, approximately 10 days
Text: as §3, §4

corn (Zea mays) = assay: Test A postemergence, visual injury rating; conditions: 0 is no effect, 100 is complete control; for Corn plant response rating: 0 to 100 scale, approximately 10 days
Text: as §3, §4

[18] = test system: blackgrass (Alopecurus myosuroides); assay: Test A postemergence, visual injury rating; conditions: 0 is no effect, 100 is complete control; for Blackgrass plant response rating: 0 to 100 scale, approximately 10 days
Text: as §3, §4

[19] = 125 g ai/ha, 0 to 100 scale (0 no effect, 100 complete control)
[20] = 500 g ai/ha, 0 to 100 scale (0 no effect, 100 complete control)
[21] = 31 g ai/ha, 0 to 100 scale, 0 no effect, 100 complete control

O=C(OCC1CC1(F)F)c1c(Br)cccc1Oc1ncc(Cl)cn1 (stereo not drawn) [Compound 10]
20: Barnyardgrass plant response rating (0 to 100 scale) ([13]; 125 g ai/ha) | Blackgrass plant response rating (0 to 100 scale) ([18]; 125 g ai/ha)
100: Pigweed plant response rating [5, 19] | Pigweed plant response rating [5, 20] | Barnyardgrass plant response rating ([6]; 500 g ai/ha) | Kochia plant response rating (kochia (Kochia scoparia) [7]; [20]) | Foxtail, Giant plant response rating [8, 19] | Foxtail, Giant plant response rating [8, 20] | Pigweed plant response rating (0 to 100 scale) ([12]; 500 g ai/ha) | Barnyardgrass plant response rating (0 to 100 scale) ([13]; 500 g ai/ha) | Kochia plant response rating (0 to 100 scale) (kochia (Kochia scoparia) [14]; 500 g ai/ha) | Galium plant response rating (0 to 100 scale) ([15]; 125 g ai/ha) | Galium plant response rating (0 to 100 scale) ([15]; 500 g ai/ha) | Foxtail, Giant plant response rating (0 to 100 scale) ([16]; 500 g ai/ha)
80: Plant response rating, Ducksalad [2] | Plant response rating, Sedge, Umbrella [3]
50: Ragweed plant response rating (0 to 100 scale) ([17]; 500 g ai/ha)
90: Kochia plant response rating (kochia (Kochia scoparia) [7]; [19]) | Pigweed plant response rating (0 to 100 scale) ([12]; 125 g ai/ha) | Kochia plant response rating (0 to 100 scale) (kochia (Kochia scoparia) [14]; 125 g ai/ha) | Blackgrass plant response rating (0 to 100 scale) ([18]; 500 g ai/ha)
40: Barnyardgrass plant response rating ([6]; 125 g ai/ha) | Wheat plant response rating (0 to 100 scale) ([10]; 500 g ai/ha)
10: Ryegrass, Italian plant response rating [4, 19] | Ryegrass, Italian plant response rating (0 to 100 scale) ([11]; 125 g ai/ha) | Ragweed plant response rating (0 to 100 scale) ([17]; 125 g ai/ha) | Corn plant response rating (0 to 100 scale) (corn (Zea mays); 125 g ai/ha)
30: Ryegrass, Italian plant response rating [4, 20] | Foxtail, Giant plant response rating (0 to 100 scale) ([16]; 125 g ai/ha)
0: Plant response rating, Rice (rice (Oryza sativa)) | Plant response rating, Barnyardgrass [1] | Ragweed plant response rating [9, 19] | Ragweed plant response rating [9, 20] | Wheat plant response rating (0 to 100 scale) ([10]; 125 g ai/ha)
60: Ryegrass, Italian plant response rating (0 to 100 scale) ([11]; 500 g ai/ha) | Corn plant response rating (0 to 100 scale) (corn (Zea mays); 500 g ai/ha)

CCCCOC(=O)c1c(Br)cccc1Oc1ncc(Cl)cn1 [Compound 100]
80: Kochia plant response rating (kochia (Kochia scoparia) [14]; 125 g ai/ha)
100: Barnyardgrass plant response rating ([6]; 125 g ai/ha) | Plant response rating, Foxtail, Giant [8, 19]
30: Pigweed plant response rating ([12]; 31 g ai/ha)
90: Plant response rating, Ducksalad [2]
20: Ryegrass, Italian plant response rating ([11]; 125 g ai/ha) | Galium plant response rating ([15]; 31 g ai/ha) | Foxtail, Giant plant response rating ([16]; 31 g ai/ha)
10: Barnyardgrass plant response rating ([13]; 31 g ai/ha) | Corn plant response rating (corn (Zea mays); 31 g ai/ha) | Corn plant response rating (corn (Zea mays); 125 g ai/ha)
60: Plant response rating, Pigweed [5, 19] | Kochia plant response rating (kochia (Kochia scoparia) [14]; 31 g ai/ha)
70: Plant response rating, Sedge, Umbrella [3] | Pigweed plant response rating ([12]; 125 g ai/ha) | Galium plant response rating ([15]; 125 g ai/ha) | Foxtail, Giant plant response rating ([16]; 125 g ai/ha)
50: Plant response rating, Foxtail, Giant [8, 21] | Barnyardgrass plant response rating ([13]; 125 g ai/ha)
40: Plant response rating, Barnyardgrass [1] | Plant response rating, Barnyardgrass [6, 21] | Blackgrass plant response rating ([18]; 125 g ai/ha)
0: Plant response rating, Rice (rice (Oryza sativa)) | Plant response rating, Ryegrass, Italian [4, 21] | Plant response rating, Ryegrass, Italian [4, 19] | Plant response rating, Pigweed [5, 21] | Plant response rating, Kochia (kochia (Kochia scoparia) [7]; [21]) | Plant response rating, Kochia (kochia (Kochia scoparia) [7]; [19]) | Plant response rating, Ragweed [9, 21] | Plant response rating, Ragweed [9, 19] | Wheat plant response rating ([10]; 31 g ai/ha) | Wheat plant response rating ([10]; 125 g ai/ha) | Ryegrass, Italian plant response rating ([11]; 31 g ai/ha) | Ragweed plant response rating ([17]; 31 g ai/ha) | Ragweed plant response rating ([17]; 125 g ai/ha) | Blackgrass plant response rating ([18]; 31 g ai/ha)
